Measured values: PMC9963876, “Multiple Effects of Echinochrome A on Selected Ion Channels Implicated in Skin Physiology” (Marine Drugs, 2023)

How the values were obtained:
Orai1 = biological target: T1, Orai1 (Homo sapiens, UniProt Q96D31); assay: whole-cell patch clamp, Orai1/STIM1 co-expressing HEK […]; type: cell-based
T1 construct: with STIM1

TRPV3 = biological target: T2, TRPV3 (Homo sapiens, UniProt Q8NET8); assay: whole-cell patch clamp, TRPV3-overexpressing HEK […], 2-APB-activated current; type: cell-based
T2 sequence (Q8NET8 1-790): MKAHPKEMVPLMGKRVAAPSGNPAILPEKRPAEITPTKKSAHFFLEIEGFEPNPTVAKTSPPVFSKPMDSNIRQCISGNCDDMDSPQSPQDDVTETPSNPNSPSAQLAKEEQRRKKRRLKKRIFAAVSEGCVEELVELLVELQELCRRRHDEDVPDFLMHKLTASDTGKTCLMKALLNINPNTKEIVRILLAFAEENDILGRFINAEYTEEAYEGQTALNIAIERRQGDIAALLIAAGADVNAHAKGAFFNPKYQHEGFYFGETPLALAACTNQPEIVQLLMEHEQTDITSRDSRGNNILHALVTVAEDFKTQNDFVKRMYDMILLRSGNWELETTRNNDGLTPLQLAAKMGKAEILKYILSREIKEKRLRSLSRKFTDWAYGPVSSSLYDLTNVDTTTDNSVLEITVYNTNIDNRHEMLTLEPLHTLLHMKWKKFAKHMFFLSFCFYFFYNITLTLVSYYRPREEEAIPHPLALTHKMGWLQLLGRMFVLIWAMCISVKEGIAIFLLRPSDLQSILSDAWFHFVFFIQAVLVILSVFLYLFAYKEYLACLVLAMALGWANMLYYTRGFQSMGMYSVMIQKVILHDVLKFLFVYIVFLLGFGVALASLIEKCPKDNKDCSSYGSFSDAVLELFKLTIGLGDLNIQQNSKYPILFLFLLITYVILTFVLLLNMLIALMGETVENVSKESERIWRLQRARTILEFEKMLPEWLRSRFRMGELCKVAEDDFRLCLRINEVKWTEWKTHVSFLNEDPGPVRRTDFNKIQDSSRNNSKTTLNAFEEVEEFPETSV

T1 sequence (Q96D31 whole entry): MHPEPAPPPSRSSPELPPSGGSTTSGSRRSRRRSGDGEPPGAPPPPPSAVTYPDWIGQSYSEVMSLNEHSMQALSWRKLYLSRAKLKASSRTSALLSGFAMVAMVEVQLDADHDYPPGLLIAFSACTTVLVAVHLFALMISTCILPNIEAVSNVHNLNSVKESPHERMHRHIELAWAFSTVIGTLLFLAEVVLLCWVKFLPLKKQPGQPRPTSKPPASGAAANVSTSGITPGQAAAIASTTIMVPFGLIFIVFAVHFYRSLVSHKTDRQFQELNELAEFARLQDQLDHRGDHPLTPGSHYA
T1 sequence (Q13586 23-685 partner): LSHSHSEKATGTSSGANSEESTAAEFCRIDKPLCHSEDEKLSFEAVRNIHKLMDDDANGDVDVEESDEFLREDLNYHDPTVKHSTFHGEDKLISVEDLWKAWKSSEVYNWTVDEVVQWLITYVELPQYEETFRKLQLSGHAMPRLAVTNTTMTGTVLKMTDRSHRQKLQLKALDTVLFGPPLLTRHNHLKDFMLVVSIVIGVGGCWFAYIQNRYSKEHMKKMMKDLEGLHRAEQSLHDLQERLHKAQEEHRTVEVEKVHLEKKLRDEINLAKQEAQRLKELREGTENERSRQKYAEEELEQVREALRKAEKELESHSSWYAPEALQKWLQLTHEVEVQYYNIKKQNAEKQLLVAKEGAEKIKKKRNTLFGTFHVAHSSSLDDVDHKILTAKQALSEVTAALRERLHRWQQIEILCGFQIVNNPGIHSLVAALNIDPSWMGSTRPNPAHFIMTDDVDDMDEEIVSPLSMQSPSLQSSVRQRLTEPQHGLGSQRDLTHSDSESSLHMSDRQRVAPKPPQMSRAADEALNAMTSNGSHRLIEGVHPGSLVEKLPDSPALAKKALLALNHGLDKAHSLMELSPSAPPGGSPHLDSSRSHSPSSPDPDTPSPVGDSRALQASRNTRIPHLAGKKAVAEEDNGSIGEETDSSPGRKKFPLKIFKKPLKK

**Q.** With `CCc1c(O)c(O)c2c(c1O)C(=O)C(O)=C(O)C2=O` [Ech A, 6-ethyl-2,3,5,7,8-pentahydroxy-1,4-naphthoquinone] as the molecule, how does the IC50 (Orai1) read?
**A.** 2.41 ± 1.55 µM

**Q.** What about the IC50 (TRPV3) of the same molecule?
**A.** 2.11 ± 1.05 µM
